Results as given in paper doi:10.1101/2023.03.31.535043v1 (biorxiv, 2023).

Target: human A2AR (Homo sapiens, UniProt P29274)
Assay: radioligand displacement, [3H]ZM241385
Assay type: binding
Details: […] [3H]ZMA; […] Tris/HCl pH […]; […] min; CHO K1 membranes

Chain of human A2AR (P29274 whole entry): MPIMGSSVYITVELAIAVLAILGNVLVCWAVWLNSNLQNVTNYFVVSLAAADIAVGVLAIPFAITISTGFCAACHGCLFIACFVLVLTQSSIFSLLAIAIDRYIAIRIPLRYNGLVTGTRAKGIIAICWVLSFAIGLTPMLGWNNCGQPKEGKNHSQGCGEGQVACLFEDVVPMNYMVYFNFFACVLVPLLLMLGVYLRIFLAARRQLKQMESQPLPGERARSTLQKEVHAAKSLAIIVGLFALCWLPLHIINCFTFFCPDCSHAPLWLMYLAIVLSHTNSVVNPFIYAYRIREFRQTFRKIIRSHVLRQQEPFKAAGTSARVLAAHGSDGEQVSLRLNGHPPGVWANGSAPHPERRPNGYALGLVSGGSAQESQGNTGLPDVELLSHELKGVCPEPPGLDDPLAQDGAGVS

Ki: 310 ± 23.4 nM
Compound: N#Cc1c(NC(=O)Cn2c(=O)oc3ccccc32)oc(-c2ccccc2)c1-c1ccccc1 [JG-10]
